Where a name gives a salt, the structure may show the parent alone.
How the values were obtained:
diabetic rats [1] = assay: Fasting blood glucose and glucose tolerance in diabetic rats (high calorie feed plus alloxan); type: in vivo, SD rat; details: for Blood Glucose at 0 hour / Blood Glucose at 2th hour / Blood Glucose at 0.5 hour: rats, positive control 170 mg/kg
Description: (§1) Method for preparing the solution of the test sample (500 mg/kg): 2.3011 g of the test sample was precisely weighed and 46 mL of distilled water was added to prepare a solution of 0.05 g/mL, i.e., high-dose group of the test sample (500 mg/kg, 1 mL/100 g), which was equal to 30 times the recommended amount for human.
as §1, with “(170” for “(500”, “0.6970” for “2.3011”, “41” for “46”, “0.017” for “0.05”, “medium-dose” for “high-dose”, “10” for “30”
as §1, with “(85” for “(500”, “0.3396” for “2.3011”, “40” for “46”, “0.0085” for “0.05”, “low-dose” for “high-dose”, “5” for “30”
Method for preparing the positive control sample: the metformin hydrochloride tablet was milled into fine powders by a mortar, 0.9329 g powder was precisely weighed and transferred to a 100 mL-beaker. 43 mL of distilled water was added by using a 100 mL-graduated cylinder, preparing solution with a concentration of 0.017 g/mL, i.e., metformin positive control group for rat (170 mg/kg, 1 ml/100 g), which was equal to 10 times the recommended amount for human.
After 5-day of adaptive housing with normal feeding, the rats were fasted for 3 to 4 hours and blood samples were taken from the tails. The fasting blood glucose value, which was the blood glucose value before administration of glucose (0 hour), was tested. After administration of 2.5 g/kgBW glucose, the blood glucose level was tested at the 0.5 hour and the 2nd hour as the basal value of that batch of animals. The rats were divided into 6 groups according to the blood glucose value at 0 hour and the 0.5 hour, including one blank group, one positive control group, one model group and 3 dosing groups of the test sample. There were 20 rats in the high-dose group, and 18 rats in the other groups. The blank group was not treated. The positive control group was administered with metformin solution by intragastric gavage. The 3 dosing groups of the test sample were administered with test sample solutions of different concentrations by intragastric gavage. The model group was administered with the solvent of the same volume. […] Normal feeds were provided to all groups. One week later, high calorie feeds were provided to the model group, positive control group and three dosing groups of the test sample. 30 days after the feeding, the rats were fasted for 24 hours. The model group and the three dosing groups of the test sample were respectively peritoneal injected with alloxan of 200 mg/kgBW (the injection amount was […] weight) on the base of high calorie feed. The model group and 3 dosing groups of the test sample were continuously fed on high calorie feeds for 3 days. When the experiment ended, animals in each group were fasted for 3 to 4 hours, and the fasting blood glucose, glucose tolerance and area under the blood glucose curve were measured.

diabetic rats [2] = assay: Cholesterol level and triglyceride level in serum of rats; type: in vivo, SD rat; details: positive control 170 mg/kg
Description: After the experiment, the rats in each group were fasted for 3 to 4 hours and peritoneal injected with pentobarbital sodium solution (1 mL/100 g) for anesthesia. 8 mL of blood was taken from the femoral artery and centrifuged at 4500 r for 6 minutes at 4° C. The serum was taken and the cholesterol level was tested by a cholesterol kit, and the triglyceride level was tested by a triglyceride kit.

Body weight of rats = type: in vivo, SD rat; set-up: unit not given here; details: diabetic rats, positive control 170 mg/kg
Text: The rats were weighed after 1-day adaptive feed, and the rats were weighed once a week and recorded.

[3] = Organ coefficient of rats; type: in vivo, SD rat; details: diabetic rats, positive control 170 mg/kg
Description: (§2) The rats were subjected to euthanasia and dissection. Hearts, livers, spleens, lungs, kidneys and parts of the pancreases of the rats were weighed, imaged and recorded, respectively. The organ coefficients were calculated. In addition, pancreases from each group were respectively immersed into formalin-containing bottles.

alloxan-induced mice = assay: Fasting blood glucose and glucose tolerance in alloxan hyperglycemia model mice; type: in vivo, ICR mouse; details: for Blood glucose decreasing rate of the mice: positive control 230 mg/Kg; for Blood glucose of the mice: positive control 230 mg/kg
Description: as §1
as §1, with “(170” for “(500”, “0.6970” for “2.3011”, “41” for “46”, “0.017” for “0.05”, “medium-dose” for “high-dose”, “10” for “30”
as §1, with “(85” for “(500”, “0.3396” for “2.3011”, “40” for “46”, “0.0085” for “0.05”, “low-dose” for “high-dose”, “5” for “30”
Method for preparing the positive control sample: the metformin hydrochloride tablet was milled into fine powders by a mortar, 0.1470 g powder was precisely weighed and transferred to a 10 mL-centrifugal tube. 5 mL of distilled water was added by a pipette to prepare a solution with a concentration of 0.023 g/mL, i.e., metformin positive control group for mouse (230 mg/kg, 0.1 ml/10 g), which was equal to 13.5 times the recommended amount for human.
The administration of test sample to the rats lasted for 45 days, and the administration to mice lasted for 55 days.
After 3-day of adaptive housing with normal feeding, 15 mice were randomly chosen and subjected to fasting for 3 to 5 hours. The fasting blood glucose value was measured as the basal blood glucose value of this batch of animals. Thereafter, the mice were subjected to fasting for 24 hours (with free access to water). Except for the blank group and the negative control group, 96 mg/kg of alloxan (fresh prepared) were injected via caudal vein to establish the model, at an administration amount of 0.1 mL/10 g. 4 days later, the animals were fasted for 3 to 5 hours and the blood glucose was tested. Animals with blood glucose of 10 to 25 mmol/L were considered as hyperglycemia model animals. The fasting blood glucose value of mice was tested every two week. After the experiments, animals in each group were fasted for 3 to 4 hours, and the fasting blood glucose, glucose tolerance, blood glucose decreasing rate and the area under the blood glucose curve were tested.

Body weight of mice = type: in vivo, ICR mouse; details: alloxan mice, positive control 230 mg/kg
Text: The mice were weighed after 1-day adaptive feed, and the mice were weighed once a week and recorded. The administration of test sample to the rats lasted for 45 days, and the administration to mice lasted for 55 days.

[4] = Organ coefficient of mice; type: in vivo, ICR mouse; details: alloxan mice, positive control 230 mg/kg
Description: as §2, with “mice” for “rats”, “and” for “and parts of the”, “bottles, and the sections were sent for pathological examination.” for “bottles.”
After administration of the test sample, the hearts, livers, spleens, lungs, kidneys and pancreases of the mice in each group were weighed respectively, and organ coefficients of each group were compared.

CN(C)C(=N)N=C(N)N [metformin, metformin hydrochloride]
Area under the blood glucose curve vs model group (in words) (diabetic rats [1]; diabetic rats, glucose tolerance test): showed significant differences
Effect on fasting blood glucose vs model group (in words) (diabetic rats [1]; diabetic rats, positive control group): significantly improved symptom of the hyperglycemia
Blood Glucose at 0 hour (diabetic rats [1]; 4D): 6.00 ± 0.87
Blood Glucose at 2th hour (diabetic rats [1]; 4D): 5.75 ± 0.97
Blood Glucose at 0.5 hour (diabetic rats [1]; 4D): 8.33 ± 1.54
Blood Glucose at 0 hour (diabetic rats [1]; 45D): 12.05 ± 4.98
Blood Glucose at 2th hour (diabetic rats [1]; 45D): 13.31 ± 5.83
Blood Glucose at 0.5 hour (diabetic rats [1]; 45D): 15.98 ± 4.87
Cholesterol Index (diabetic rats [2]): 3.71 ± 1.57
Triglyceride Index (diabetic rats [2]): 9.47 ± 5.29
Weight changes of rats (Body weight of rats; 3 d): 207.00 ± 10.91
Weight changes of rats (Body weight of rats; 6 d): 225.22 ± 12.01
Weight changes of rats (Body weight of rats; 8 d): 244.28 ± 10.93
Weight changes of rats (Body weight of rats; 12 d): 277.50 ± 8.25
Weight changes of rats (Body weight of rats; 22 d): 325.89 ± 18.39
Weight changes of rats (Body weight of rats; 28 d): 373.67 ± 21.40
Weight changes of rats (Body weight of rats; 35 d): 396.22 ± 23.32
Weight changes of rats (Body weight of rats; 42 d): 403.83 ± 21.22
Weight changes of rats (Body weight of rats; 45 d): 361.19 ± 27.43
Heart Coefficient [3]: 0.36 ± 0.06
Kidney Coefficient [3]: 0.88 ± 0.20
Liver Coefficient [3]: 3.36 ± 0.48
Lung Coefficient [3]: 0.53 ± 0.15
Pancreas Coefficient [3]: 0.37 ± 0.13
Spleen Coefficient [3]: 0.16 ± 0.09
Blood glucose decreasing rate of the mice (alloxan-induced mice; 45 d): −20.06% ± 0.30
Blood glucose decreasing rate of the mice (alloxan-induced mice; 55 d): 21.60% ± 0.48
Blood glucose of the mice (alloxan-induced mice; 0 d): 22.87 ± 3.66 mmol/L
Blood glucose of the mice (alloxan-induced mice; 16 d): 13.60 ± 4.82 mmol/L
Blood glucose of the mice (alloxan-induced mice; 30 d): 15.57 ± 5.85 mmol/L
Blood glucose of the mice (alloxan-induced mice; 45 d): 18.28 ± 5.86 mmol/L
Blood glucose of the mice (alloxan-induced mice; 55 d): 17.93 ± 10.23 mmol/L
Effect on fasting blood glucose vs model group (in words) (alloxan-induced mice; positive control group): significantly improved symptom of the hyperglycemia
Changes of body weight of mice (Body weight of mice; 1 d): 21.1 ± 2.0 g
Changes of body weight of mice (Body weight of mice; 2 d): 23.3 ± 2.3 g
Changes of body weight of mice (Body weight of mice; 6 d): 22.1 ± 3.1 g
Changes of body weight of mice (Body weight of mice; 8 d): 22.8 ± 5.8 g
Changes of body weight of mice (Body weight of mice; 11 d): 23.1 ± 4.0 g
Changes of body weight of mice (Body weight of mice; 20 d): 25.6 ± 5.4 g
Changes of body weight of mice (Body weight of mice; 27 d): 25.3 ± 4.2 g
Changes of body weight of mice (Body weight of mice; 34 d): 27.8 ± 4.1 g
Changes of body weight of mice (Body weight of mice; 41 d): 29.1 ± 4.8 g
Changes of body weight of mice (Body weight of mice; 48 d): 27.0 ± 5.4 g
Changes of body weight of mice (Body weight of mice; 55 d): 27.2 ± 5.2 g
Heart Coefficient [4]: 0.50 ± 0.09
Kidney Coefficient [4]: 2.17 ± 0.61
Liver Coefficient [4]: 4.96 ± 1.67
Lung Coefficient [4]: 0.67 ± 0.14
Pancreas Coefficient [4]: 0.76 ± 0.31
Spleen Coefficient [4]: 0.47 ± 0.37

Source: patent publication US20190060391A1, “POWDER FORMULATION HAVING HY[…] HYP[…] AND METHOD FOR PREPARING THE SAME” (INFINITUS (CHINA) COMPANY LTD., priority 2017, published 2019)
